Earlier results on one compound are cited in US20120258171A1, “COMPOSITION COMPRISING FESOTERODINE AND FIBER” (ratiopharm GmbH, priority 2009, published 2012).

The conditions of data set [1]: general statement on the active agent.
The test system of a further data set is overactive bladder. To be noted: both Phase III studies, versus placebo.

On to `CC(C)C(=O)Oc1ccc(CO)cc1[C@H](CCN(C(C)C)C(C)C)c1ccccc1` [Fesoterodine, 2-[(1R)-3-(di-isopropylamine)-1-phenylpropyl]-4-(hydroxymethyl)phenyl-isobutyrate], for which the stability against hydrolysis entry in data set [1] is reported as “not particularly stable against hydrolysis”. The “improvement of clinically relevant end points (urge incontinence events/24 h, frequency of micturition, mean micturition volume)” value in the data set on overactive bladder is “statistically significant improvements over a placebo”.
